Experimental data: patent publication US9321773B2, “Compounds” (Respivert Ltd, priority 2009, dated 2016)
Like-named read-outs stand apart in the source and are kept apart here.

Legend:
[1] = tested on: PMA-differentiated U937 cells; test: MTT Assay (cell viability); format: cell-based, Human; conditions: percentage loss of cell viability; for Cell Viability MTT Assay in D-U937 cells at 4 hr: 4 hr in 5% FCS; for Cell Viability MTT Assay in D-U937 cells at 24 hr: 24 hr in 10% FCS
Summary of the method: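 Differentiated U937 cells treated with compound for 4 hr (5% FCS) or 24 hr (10% FCS), then given MTT for 1 hr; formazan dissolved in DMSO and absorbance read at 550 nm. Viability loss expressed as % versus 0.5% DMSO vehicle.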

[2] = tested on: H2O2 induced pAkt in D-U937 cells; test: PI3Kδ Cell Based Assay (H2O2 induced pAkt); conditions: Homo sapiens, dU937
Summary of the method: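 Read-out is the pAkt/total Akt signal ratio, measured with anti-pAkt and anti-pan-Akt antibodies after H2O2 stimulation. Cells were U937 monocytes given PMA (100 ng/mL) for 48 to 72 hr. IC50 values fitted from compound serial dilutions.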

recombinant PI3 kinase δ = recombinant PI3 kinase δ (Homo sapiens (Human), UniProt O00329); test: Enzyme Inhibition Assay (HTRF PI3K enzyme assay, TR-FRET); format: biochemical
Summary of the method: (§1)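 TR-FRET readout after 15-18 hr at RT with biotinylated PIP3, GST-tagged GRP1 PH domain and europium/APC fluorophores; product PIP3 displaces the tracer and lowers the signal. Beforehand, compound and PIP2 were reacted for 2 hr at RT with human recombinant PI3Kα, δ or γ.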

recombinant PI3 kinase α = recombinant PI3 kinase α (Homo sapiens (Human), UniProt P42336); test: as above; format: biochemical
Summary of the method: as §1

recombinant PI3 kinase γ = recombinant PI3 kinase γ (Homo sapiens (Human), UniProt P48736); test: as above; format: biochemical
Summary of the method: as §1

[3] = activity range, D-U937 cells, read-out: Cellular Activity IC50 values (H2O2 induced pAkt D-U937 Cells)
[4] = activity range, read-out: PI3 Kinase Inhibition IC50 values at stated Isozyme δ
[5] = activity range, read-out: PI3 Kinase Inhibition IC50 values at stated Isozyme α
[6] = activity range, read-out: PI3 Kinase Inhibition IC50 values at stated Isozyme γ

Sequence of recombinant PI3 kinase γ (P48736 whole entry): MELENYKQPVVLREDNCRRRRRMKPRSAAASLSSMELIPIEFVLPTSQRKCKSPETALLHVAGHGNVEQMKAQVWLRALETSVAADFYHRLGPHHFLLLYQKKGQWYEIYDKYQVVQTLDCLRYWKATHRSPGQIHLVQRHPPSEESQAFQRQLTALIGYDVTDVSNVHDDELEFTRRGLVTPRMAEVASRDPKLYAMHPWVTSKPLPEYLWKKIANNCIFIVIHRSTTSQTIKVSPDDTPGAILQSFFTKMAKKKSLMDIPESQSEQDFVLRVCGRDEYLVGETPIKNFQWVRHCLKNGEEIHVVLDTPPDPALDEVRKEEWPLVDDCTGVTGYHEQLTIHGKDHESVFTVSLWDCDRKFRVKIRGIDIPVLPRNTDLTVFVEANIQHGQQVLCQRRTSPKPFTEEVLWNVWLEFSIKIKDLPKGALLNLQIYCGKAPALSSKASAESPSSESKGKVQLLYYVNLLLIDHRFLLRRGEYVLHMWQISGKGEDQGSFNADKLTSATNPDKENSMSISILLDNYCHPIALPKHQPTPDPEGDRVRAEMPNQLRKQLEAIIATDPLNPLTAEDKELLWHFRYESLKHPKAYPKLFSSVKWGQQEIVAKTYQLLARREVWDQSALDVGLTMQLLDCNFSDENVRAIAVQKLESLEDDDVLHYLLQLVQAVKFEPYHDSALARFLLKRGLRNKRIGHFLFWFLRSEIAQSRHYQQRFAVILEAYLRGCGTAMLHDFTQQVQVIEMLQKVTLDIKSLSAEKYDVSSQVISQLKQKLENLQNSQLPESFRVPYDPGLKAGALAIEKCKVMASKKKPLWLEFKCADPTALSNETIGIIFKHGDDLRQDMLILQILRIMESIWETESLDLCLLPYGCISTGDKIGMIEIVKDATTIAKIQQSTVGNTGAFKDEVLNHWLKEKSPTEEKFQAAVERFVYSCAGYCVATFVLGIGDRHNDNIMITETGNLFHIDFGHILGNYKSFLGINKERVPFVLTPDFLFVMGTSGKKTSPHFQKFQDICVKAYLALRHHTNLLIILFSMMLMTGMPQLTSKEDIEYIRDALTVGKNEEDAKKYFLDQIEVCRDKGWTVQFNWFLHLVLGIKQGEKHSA
Sequence of recombinant PI3 kinase δ (O00329 whole entry, the tested form may be a part): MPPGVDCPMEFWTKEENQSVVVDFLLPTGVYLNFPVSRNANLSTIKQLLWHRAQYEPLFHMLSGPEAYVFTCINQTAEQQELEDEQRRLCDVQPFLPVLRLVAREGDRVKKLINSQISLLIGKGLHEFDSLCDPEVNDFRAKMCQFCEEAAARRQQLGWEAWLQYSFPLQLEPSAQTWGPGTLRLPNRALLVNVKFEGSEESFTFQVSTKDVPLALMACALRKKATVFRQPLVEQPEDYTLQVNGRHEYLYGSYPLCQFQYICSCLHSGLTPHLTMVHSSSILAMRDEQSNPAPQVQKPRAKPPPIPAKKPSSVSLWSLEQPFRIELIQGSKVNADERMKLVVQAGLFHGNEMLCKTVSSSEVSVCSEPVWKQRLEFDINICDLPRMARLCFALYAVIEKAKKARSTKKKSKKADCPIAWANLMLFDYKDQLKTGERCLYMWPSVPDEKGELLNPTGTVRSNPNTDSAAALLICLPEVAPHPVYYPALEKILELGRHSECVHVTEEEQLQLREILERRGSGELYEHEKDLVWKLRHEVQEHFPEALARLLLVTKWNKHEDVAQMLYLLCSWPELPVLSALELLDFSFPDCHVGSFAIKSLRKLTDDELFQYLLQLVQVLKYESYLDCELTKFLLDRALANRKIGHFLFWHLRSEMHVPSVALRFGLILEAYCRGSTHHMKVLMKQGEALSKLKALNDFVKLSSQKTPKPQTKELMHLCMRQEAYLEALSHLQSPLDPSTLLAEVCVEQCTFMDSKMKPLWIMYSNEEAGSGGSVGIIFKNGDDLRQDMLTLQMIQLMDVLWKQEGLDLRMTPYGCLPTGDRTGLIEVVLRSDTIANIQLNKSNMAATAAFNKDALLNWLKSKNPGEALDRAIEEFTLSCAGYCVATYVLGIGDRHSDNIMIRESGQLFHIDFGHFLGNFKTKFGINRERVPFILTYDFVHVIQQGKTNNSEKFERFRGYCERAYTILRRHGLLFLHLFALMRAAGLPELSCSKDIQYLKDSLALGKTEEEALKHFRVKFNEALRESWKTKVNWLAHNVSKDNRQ
Sequence of recombinant PI3 kinase δ (P27986 whole entry partner, the tested form may be a part): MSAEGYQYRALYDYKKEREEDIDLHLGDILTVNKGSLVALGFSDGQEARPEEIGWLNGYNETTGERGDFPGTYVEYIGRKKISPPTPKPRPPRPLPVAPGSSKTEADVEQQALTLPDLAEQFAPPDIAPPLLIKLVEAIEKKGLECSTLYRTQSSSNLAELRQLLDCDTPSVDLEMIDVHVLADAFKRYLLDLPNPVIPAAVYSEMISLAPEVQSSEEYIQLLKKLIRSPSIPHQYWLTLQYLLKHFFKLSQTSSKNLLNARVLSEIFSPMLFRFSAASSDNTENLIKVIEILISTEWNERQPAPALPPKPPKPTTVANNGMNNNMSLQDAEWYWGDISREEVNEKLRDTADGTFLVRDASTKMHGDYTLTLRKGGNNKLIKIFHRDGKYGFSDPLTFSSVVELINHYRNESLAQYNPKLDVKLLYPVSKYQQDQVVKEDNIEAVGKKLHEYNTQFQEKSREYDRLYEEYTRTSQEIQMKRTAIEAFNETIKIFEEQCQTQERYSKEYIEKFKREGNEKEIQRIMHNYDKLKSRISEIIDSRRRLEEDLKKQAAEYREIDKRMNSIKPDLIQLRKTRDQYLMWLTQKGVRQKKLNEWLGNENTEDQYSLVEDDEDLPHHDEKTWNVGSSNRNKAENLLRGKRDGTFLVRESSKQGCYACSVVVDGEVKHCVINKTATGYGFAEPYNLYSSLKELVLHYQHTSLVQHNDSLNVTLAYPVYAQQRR
Sequence of recombinant PI3 kinase α (P42336 whole entry): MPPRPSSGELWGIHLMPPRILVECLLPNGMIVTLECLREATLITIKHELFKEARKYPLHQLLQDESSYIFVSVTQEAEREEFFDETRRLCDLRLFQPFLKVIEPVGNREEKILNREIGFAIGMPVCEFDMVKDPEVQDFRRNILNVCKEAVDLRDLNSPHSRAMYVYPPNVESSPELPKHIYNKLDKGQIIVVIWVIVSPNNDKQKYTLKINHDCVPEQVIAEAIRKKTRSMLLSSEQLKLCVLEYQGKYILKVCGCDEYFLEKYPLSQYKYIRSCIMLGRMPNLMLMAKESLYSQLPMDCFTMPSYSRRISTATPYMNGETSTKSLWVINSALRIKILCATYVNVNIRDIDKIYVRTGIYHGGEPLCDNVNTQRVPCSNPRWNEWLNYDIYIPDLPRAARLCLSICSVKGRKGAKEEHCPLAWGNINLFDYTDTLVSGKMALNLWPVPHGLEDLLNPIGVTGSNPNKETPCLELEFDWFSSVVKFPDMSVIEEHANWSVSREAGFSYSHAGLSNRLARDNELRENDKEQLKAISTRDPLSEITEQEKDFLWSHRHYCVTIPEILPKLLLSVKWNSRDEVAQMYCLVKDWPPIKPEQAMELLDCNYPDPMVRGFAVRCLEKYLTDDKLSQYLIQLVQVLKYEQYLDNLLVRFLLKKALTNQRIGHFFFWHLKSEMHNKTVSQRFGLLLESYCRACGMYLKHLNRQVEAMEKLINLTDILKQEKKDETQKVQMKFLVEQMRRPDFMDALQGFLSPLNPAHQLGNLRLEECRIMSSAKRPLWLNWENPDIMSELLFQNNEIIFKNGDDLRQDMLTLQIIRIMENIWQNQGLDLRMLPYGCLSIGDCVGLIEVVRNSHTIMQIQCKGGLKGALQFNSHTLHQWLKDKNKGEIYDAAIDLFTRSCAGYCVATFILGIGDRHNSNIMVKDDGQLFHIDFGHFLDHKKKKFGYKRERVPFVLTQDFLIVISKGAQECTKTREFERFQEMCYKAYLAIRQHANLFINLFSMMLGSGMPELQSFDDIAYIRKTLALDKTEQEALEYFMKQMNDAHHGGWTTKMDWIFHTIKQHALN
Sequence of recombinant PI3 kinase α (P27986 whole entry partner): as the sequence (P27986 whole entry partner, the tested form may be a part) above

| SMILES | IC50 [2, 3] | IC50 (recombinant PI3 kinase δ; [4]) | IC50 (recombinant PI3 kinase α; [5]) | IC50 (recombinant PI3 kinase γ; [6]) | IC50 ([2]; read-out: Cellular Activity IC50 values (H2O2 induced pAkt (nM) D-U937 Cells)) | IC50 (recombinant PI3 kinase δ; read-out: PI3 Kinase Inhibition IC50 values at stated Isozyme (nM) δ) | IC50 (recombinant PI3 kinase α; read-out: PI3 Kinase Inhibition IC50 values at stated Isozyme (nM) α) | IC50 (recombinant PI3 kinase γ; read-out: PI3 Kinase Inhibition IC50 values at stated Isozyme (nM) γ) | Cell Viability MTT Assay in D-U937 cells at 4 hr [1] | Cell Viability MTT Assay in D-U937 cells at 24 hr [1] |
| --- | --- | --- | --- | --- | --- | --- | --- | --- | --- | --- |
| COCC#Cc1cccc2nc(Cn3nc(-c4ccc(O)cc4)c4c(N)ncnc43)n(Cc3ccccc3Cl)c(=O)c12 [Example 28, 2-((4-Amino-3-(4-hydroxyphenyl)-1H-pyrazolo[3,4-d]pyrimidin-1-yl)methyl)-3-(2-chlorobenzyl)-5-(3-methoxyprop-1-ynyl)quinazolin-4(3H)-one] | < 10 nM | < 50 nM | 50 to 1000 nM | 50 to 1000 nM | – | – | – | – | − (− <30%) | − (− <30%) |
| C#Cc1cccc2nc(Cn3nc(-c4ccc(O)cc4)c4c(N)ncnc43)n(Cc3ccccc3)c(=O)c12 [Example 44, 2-((4-Amino-3-(4-hydroxyphenyl)-1H-pyrazolo[3,4-d]pyrimidin-1-yl)methyl)-3-benzyl-5-ethynylquinazolin-4(3H)-one] | < 10 nM | < 50 nM | > 1000 nM | 50 to 1000 nM | – | – | – | – | − (− <30%) | − (− <30%) |
| C#Cc1cccc2nc(Cn3nc(-c4ccc(O)cc4)c4c(N)ncnc43)n(Cc3ccccc3C(F)(F)F)c(=O)c12 [Example 45, 2-((4-Amino-3-(4-hydroxyphenyl)-1H-pyrazolo[3,4-d]pyrimidin-1-yl)methyl)-5-ethynyl-3-(2-trifluoromethylbenzyl)quinazolin-4(3H)-one] | < 10 nM | < 50 nM | 50 to 1000 nM | 50 to 1000 nM | – | – | – | – | − (− <30%) | − (− <30%) |
| Nc1ncnc2c1c(-c1ccc(O)cc1)nn2Cc1nc2cccc(C#CCOCc3ccccc3)c2c(=O)n1Cc1ccccc1Cl [Example 40, 2-((4-Amino-3-(4-hydroxyphenyl)-1H-pyrazolo[3,4-d]pyrimidin-1-yl)methyl)-5-(3-(benzyloxy)prop-1-ynyl)-3-(2-chlorobenzyl)quinazolin-4(3H)-one] | < 10 nM | < 50 nM | 50 to 1000 nM | 50 to 1000 nM | – | – | – | – | − (− <30%) | − (− <30%) |
| C#Cc1cccc2nc(Cn3nc(-c4ccc(O)cc4)c4c(N)ncnc43)n(Cc3ccc(Cl)cc3F)c(=O)c12 [Example 35, 2-((4-Amino-3-(4-hydroxyphenyl)-1H-pyrazolo[3,4-d]pyrimidin-1-yl)methyl)-3-(4-chloro-2-fluorobenzyl)-5-ethynylquinazolin-4(3H)-one] | < 10 nM | < 50 nM | 50 to 1000 nM | 50 to 1000 nM | – | – | – | – | − (− <30%) | − (− <30%) |
| Nc1ncnc2c1c(-c1ccc(O)cc1)nn2Cc1nc2cccc(C#CCCCNC3CCCC3)c2c(=O)n1Cc1ccccc1Cl [Example 7, 2-((4-Amino-3-(4-hydroxyphenyl)-1H-pyrazolo[3,4-d]pyrimidin-1-yl)methyl)-3-(2-chlorobenzyl)-5-(5-(cyclopentylamino)pent-1-ynyl)quinazolin-4(3H)-one] | < 10 nM | < 50 nM | 50 to 1000 nM | 50 to 1000 nM | – | – | – | – | − (− <30%) | − (− <30%) |
| COCCOCCOCC#Cc1cccc2nc(Cn3nc(-c4cccc(O)c4)c4c(N)ncnc43)n(Cc3ccccc3F)c(=O)c12 [Example 50, 2-((4-Amino-3-(3-hydroxyphenyl)-1H-pyrazolo[3,4-d]pyrimidin-1-yl)methyl)-3-(2-fluorobenzyl)-5-(3-(2-(2-methoxyethoxy)ethoxy)prop-1-ynyl)quinazolin-4(3H)-one] | < 10 nM | < 50 nM | 50 to 1000 nM | 50 to 1000 nM | – | – | – | – | − (− <30%) | − (− <30%) |
| C#Cc1cccc2nc(Cn3nc(-c4ccc(O)cc4)c4c(N)ncnc43)n(Cc3ccc(OC)cc3F)c(=O)c12 [Example 48, 2-((4-Amino-3-(4-hydroxyphenyl)-1H-pyrazolo[3,4-d]pyrimidin-1-yl)methyl)-5-ethynyl-3-(2-fluoro-4-methoxybenzyl)quinazolin-4(3H)-one] | < 10 nM | < 50 nM | 50 to 1000 nM | 50 to 1000 nM | – | – | – | – | − (− <30%) | − (− <30%) |

More lines, main results first:

| IC50 [2, 3] | IC50 (recombinant PI3 kinase δ; [4]) | IC50 (recombinant PI3 kinase α; [5]) | IC50 (recombinant PI3 kinase γ; [6]) | IC50 ([2]; read-out: Cellular Activity IC50 values (H2O2 induced pAkt (nM) D-U937 Cells)) | IC50 (recombinant PI3 kinase δ; read-out: PI3 Kinase Inhibition IC50 values at stated Isozyme (nM) δ) | IC50 (recombinant PI3 kinase α; read-out: PI3 Kinase Inhibition IC50 values at stated Isozyme (nM) α) | IC50 (recombinant PI3 kinase γ; read-out: PI3 Kinase Inhibition IC50 values at stated Isozyme (nM) γ) | SMILES | Cell Viability MTT Assay in D-U937 cells at 4 hr [1] | Cell Viability MTT Assay in D-U937 cells at 24 hr [1] |
| --- | --- | --- | --- | --- | --- | --- | --- | --- | --- | --- |
| < 10 nM | < 50 nM | 50 to 1000 nM | 50 to 1000 nM | – | – | – | – | C#Cc1cccc2nc(Cn3nc(-c4ccc(F)c(O)c4)c4c(N)ncnc43)n(Cc3ccccc3Cl)c(=O)c12 [Example 51, 2-((4-Amino-3-(4-fluoro-3-hydroxyphenyl)-1H-pyrazolo [3,4-d]pyrimidin-1-yl)methyl)-3-(2-chlorobenzyl)-5-ethynylquinazolin-4(3H)-one] | − (− <30%) | − (− <30%) |
| < 10 nM | < 50 nM | 50 to 1000 nM | < 50 nM | – | – | – | – | CC(=O)N1CCN(C(=O)CCCC#Cc2cccc3nc(Cn4nc(-c5ccc(O)cc5)c5c(N)ncnc54)n(Cc4ccccc4Cl)c(=O)c23)CC1 [Example 71] | − (− <30%) | − (− <30%) |
| < 10 nM | < 50 nM | 50 to 1000 nM | < 50 nM | – | – | – | – | Nc1ncnc2c1c(-c1ccc(O)cc1)nn2Cc1nc2cccc(C#CCCCC(=O)NC3CCOCC3)c2c(=O)n1Cc1ccccc1Cl [Example 75, 6-(2-((4-Amino-3-(4-hydroxyphenyl)-1H-pyrazolo[3,4-d]pyrimidin-1-yl)methyl)-3-(2-chlorobenzyl)-4-oxo-3,4-dihydroquinazolin-5-yl)-N-(tetrahydro-2H-pyran-4-yl) hex-5-ynamide] | − (− <30%) | − (− <30%) |
| < 10 nM | < 50 nM | < 50 nM | < 50 nM | 0.41 nM | 36 nM | 27 nM | 22 nM | CC(C)NC(=O)CCCC#Cc1cccc2nc(Cn3nc(-c4ccc(O)cc4)c4c(N)ncnc43)n(Cc3ccccc3Cl)c(=O)c12 [Example 86, 6-(2-((4-Amino-3-(4-hydroxyphenyl)-1H-pyrazolo[3,4-d]pyrimidin-1-yl)methyl)-3-(2-chlorobenzyl)-4-oxo-3,4-dihydroquinazolin-5-yl)-N-isopropylhex-5-ynamide] | − (− <30%) | − (− <30%) |
| < 10 nM | < 50 nM | 50 to 1000 nM | < 50 nM | – | – | – | – | Cn1cc(Cn2c(Cn3nc(-c4cccc(O)c4)c4c(N)ncnc43)nc3cccc(C#CCCCC(=O)N4CCOCC4)c3c2=O)cn1 [Example 66] | − (− <30%) | + (+ >30%) |
| < 10 nM | < 50 nM | 50 to 1000 nM | < 50 nM | – | – | – | – | Nc1ncnc2c1c(-c1cccc(O)c1)nn2Cc1nc2cccc(C#CCCNC(=O)N3CCOCC3)c2c(=O)n1Cc1ccccc1Cl [Example 72, N-(4-(2-((4-Amino-3-(3-hydroxyphenyl)-1H-pyrazolo[3,4-d]pyrimidin-1-yl)methyl)-3-(2-chlorobenzyl)-4-oxo-3,4-dihydroquinazolin-5-yl)but-3-yn-1-yl)morpholine-4-carboxamide] | − (− <30%) | − (− <30%) |
